Source: patent US9617289B2, “RSV antiviral compounds” (JANSSEN R&D IRELAND, priority 2012, dated 2017)

Each molecule was assayed on rgRSV224 virus (assay: Antiviral activity: inhibition of rgRSV224 (GFP-expressing RSV) replication in HeLa cells). Conditions: human respiratory syncytial virus, HeLa, 72 h, read-out: pEC50, rgRSV224 (MOI=0.02) in HeLa cells, GFP expression three days post-virus exposure (converted).
Format: cell-based, respiratory syncytial virus
Description: Black 96-well clear-bottom microtiter plates (Corning, Amsterdam, The Netherlands) were filled in duplicate using a customized robot system with serial 4-fold dilutions of compound in a final volume of 50 μl culture medium [RPMI medium without phenol red, 10% FBS, 0.04% gentamycin (50 mg/ml) and 0.5% DMSO]. Then, 100 μl of a HeLa cell suspension (5×10^4 cells/ml) in culture medium was added to each well followed by the addition of 50 μl rgRSV224 (MOI=0.02) virus in culture medium using a multidrop dispenser (Thermo Scientific, Erembodegem, Belgium). rgRSV224 virus is an engineered virus that includes an additional GFP gene (Hallak et al, 2000) and was in-licensed from the NIH (Bethesda, Md., USA). Medium, virus- and mock-infected controls were included in each test. Cells were incubated at 37° C. in a 5% CO2 atmosphere. Three days post-virus exposure, viral replication was quantified by measuring GFP expression in the cells by a MSM laser microscope (Tibotec, Beerse, Belgium). The EC50 was defined as the 50% inhibitory concentration for GFP expression. In parallel, compounds were incubated for three days in a set of white 96-well microtitier plates (Corning) and the cytotoxicity of compounds in HeLa cells was determined by measuring the ATP content of the cells using the ATPlite kit (PerkinElmer, Zaventem, Belgium) according to the manufacturer's instructions. The CC50 was defined as the 50% concentration for cytotoxicity. SI is calculated as CC50/EC50.
Work on `CS(=O)(=O)CCCn1c(CN2C(=O)C3(CCN(c4ccc(Cl)nn4)CC3)c3ccccc32)nc2cc(Cl)ccc21` [Compound 15, 1-((5-chloro-1-(3-(methylsulfonyl)propyl)-1H-benzo[d]-imidazol-2-yl)methyl)-1′-(6-chloropyridazin-3-yl)spiro-[indoline-3,4′-piperidin]-2-one] yielded an EC50 of less than 0.158 nM. `CS(=O)(=O)CCCn1c(CN2C(=O)C3(CCN(S(=O)(=O)c4ccc5nccnc5c4)CC3)c3ccccc32)nc2cc(Cl)ccc21` [Compound 16, 1-((5-chloro-1-(3-(methylsulfonyl)propyl)-1H-benzo[d]-imidazol-2-yl)methyl)-1′-(quinoxalin-6-ylsulfonyl)spiro-[indoline-3,4′-piperidin]-2-one] gave an EC50 of less than 0.158 nM. `CC(C)(C)OC(=O)N1CCC2(CC1)C(=O)N(Cc1nc3cc(Br)ccc3n1CCCS(C)(=O)=O)c1ccccc12` [Compound 17, tert-butyl 1-((5-bromo-1-(3-(methylsulfonyl)propyl)-1H-benzo[d]imidazol-2-yl)methyl)-2-oxospiro[indoline-3,4′-piperidine]-1′-carboxylate] was tested, and the EC50 was 0.316 nM. `CS(=O)(=O)CCCn1c(CN2C(=O)C3(CCN(S(=O)(=O)c4ccc(C#N)cc4)CC3)c3ccccc32)nc2cc(Cl)ccc21` [Compound 18, 4-(1-((5-chloro-1-(3-(methylsulfonyl)propyl)-1H-benzo[d]-imidazol-2-yl)methyl)-2-oxospiro[indoline-3,4′-piperidine]-1′-ylsulfonyl) benzonitrile] was tested, and the EC50 was 1.26 nM. With `CS(=O)(=O)CCCn1c(CN2C(=O)C3(CCOCC3)c3cc(F)ccc32)nc2cc(Cl)ccc21` [Compound 19] the EC50 was 3.98 nM. Work on `CS(=O)(=O)CCCn1c(CN2C(=O)C3(CCN(c4ccc(Cl)nn4)CC3)c3cc(Br)ccc32)nc2cc(Cl)ccc21` [Compound 20, 5-bromo-1-((5-chloro-1-(3-(methylsulfonyl)propyl)-1H-benzo[d]imidazol-2-yl)methyl)-1′-(6-chloropyridazin-3-yl)spiro[indoline-3,4′-piperidin]-2-one] yielded an EC50 of 3.98 nM. Molecule `CS(=O)(=O)CCCn1c(CN2C(=O)C3(CCNCC3)c3ccccc32)nc2cc(Cl)ccc21` [Compound 21, 1-((5-chloro-1-(3-(methylsulfonyl)propyl)-1H-benzo[d]-imidazol-2-yl)methyl)spiro[indoline-3,4′-piperidin]-2-one] has an EC50 of 5.01 nM. With `CS(=O)(=O)CCCn1c(CN2C(=O)C3(CCN(C(=O)c4ccncc4)CC3)c3cc(Br)ccc32)nc2cc(Cl)ccc21` [Compound 22, 5-bromo-1-((5-chloro-1-(3-(methylsulfonyl)propyl)-1H-benzo[d]imidazol-2-yl)methyl)-1′-isonicotinoylspiro-[indoline-3,4′-piperidin]-2-one] the EC50 was 7.94 nM. `CC(C)(C)OC(=O)N1CCC2(CC1)C(=O)N(Cc1nc3cc(Cl)ccc3n1CCCS(C)(=O)=O)c1ccc(Br)cc12` [Compound 23, tert-butyl 5-bromo-1-((5-chloro-1-(3-(methyl-sulfonyl)propyl)-1H-benzo[d]imidazol-2-yl)methyl)-2-oxospiro[indoline-3,4′-piperidine]-1′-carboxylate] gave an EC50 of 7.94 nM. In the case of `CC(=O)N1CCC2(CC1)C(=O)N(Cc1nc3cc(Cl)ccc3n1CCCS(C)(=O)=O)c1ccc(Cl)cc12` [Compound 24, 1-acetyl-5-chloro-1-((5-chloro-1-(3-(methylsulfonyl)-propyl)-1H-benzo[d]imidazol-2-yl)methyl)spiro[indoline-3,4′-piperidin]-2-one], the EC50 was 7.94 nM. `CC(C)(O)CN1CCC2(CC1)C(=O)N(Cc1nc3cc(Cl)ccc3n1CCCS(C)(=O)=O)c1ccc(Cl)cc12` [Compound 25, 5-chloro-1-((5-chloro-1-(3-(methylsulfonyl)propyl)-1H-benzo[d]imidazol-2-yl)methyl)-1-(2-hydroxy-2-methylpropyl)spiro[indoline-3,4′-piperidin]-2-one] gave an EC50 of 31.6 nM. `CS(=O)(=O)CCCn1c(CN2C(=O)C3(CCNCC3)c3c(Cl)cccc32)nc2cc(Cl)ccc21` [Compound 26, 4-chloro-1-({5-chloro-1-[3-(methylsulfonyl)propyl]-1H-benzimidazol-2-yl}methyl)spiro[indole-3,4′-piperidin]-2(1H)-one] gave an EC50 of 316 nM. With `CS(=O)(=O)CCCn1c(CN2C(=O)C3(CN(S(=O)(=O)c4ccc(F)cc4)C3)c3ccccc32)nc2cc(Cl)ccc21` [Compound 33, 1′-({5-chloro-1-[3-(methylsulfonyl)propyl]-1H-benzimidazol-2-yl}methyl)-1-[(4-fluorophenyl)-sulfonyl]spiro[azetidine-3,3′-indol]-2′(1′H)-one] the EC50 was 0.158 nM. `CS(=O)(=O)CCCn1c(CN2C(=O)C3(CCCC3)c3ccncc32)nc2cc(Cl)ccc21` [Compound 37, 1′-((5-chloro-1-(3-(methylsulfonyl)propyl)-1H-benzo[d]-imidazol-2-yl)methyl)spiro[cyclopentane-1,3′-pyrrolo[2,3-c]pyridin]-2′(1′H)-one] gave an EC50 of 0.1 nM. `CS(=O)(=O)CCCn1c(CN2C(=O)C3(CCOCC3)c3ccncc32)nc2cc(Cl)ccc21` [Compound 38, 1′-((5-chloro-1-(3-(methylsulfonyl)propyl)-1H-benzo[d]-imidazol-2-yl)methyl)-2,3,5,6-tetrahydrospiro[pyran-4,3′-pyrrolo[2,3-c]pyridin]-2′(1′H)-one] gave an EC50 of 0.158 nM. With `CC(C)(C)OC(=O)N1CCC2(CC1)C(=O)N(Cc1nc3cc(Cl)ccc3n1CCCS(C)(=O)=O)c1ccccc12` [Compound 39, tert-butyl 1-((5-chloro-1-(3-(methylsulfonyl)propyl)-1H-benzo[d]imidazol-2-yl)methyl)-2-oxospiro[indoline-3,4′-piperidine]-1′-carboxylate] the EC50 was 0.631 nM. Work on `CS(=O)(=O)CCCn1c(CN2C(=O)C3(CCOCC3)c3ccccc32)nc2cc(Cl)ccc21` [Compound 40, 1-((5-chloro-1-(3-(methylsulfonyl)propyl)-1H-benzo[d]-imidazol-2-yl)methyl)-2′,3′,5′,6′-tetrahydrospiro[indoline-3,4′-pyran]-2-one] yielded an EC50 of 2.51 nM. For `CS(=O)(=O)CCCn1c(CN2C(=O)C3(CCOCC3)c3cnccc32)nc2cc(Cl)ccc21` [Compound 41, 1-((5-chloro-1-(3-(methylsulfonyl)propyl)-1H-benzo[d]-imidazol-2-yl)methyl)-2,3,5,6-tetrahydrospiro[pyran-4,3′-pyrrolo[3,2-c]pyridin]-2′(1′H)-one], the EC50 was 45.7 nM. For `CC(=O)N1CCC2(CC1)C(=O)N(Cc1nc3cc(Cl)ccc3n1CCCS(C)(=O)=O)c1cnccc12` [Compound 42, 1-acetyl-1′-((5-chloro-1-(3-(methylsulfonyl)propyl)-1H-benzo[d]imidazol-2-yl)methyl)spiro[piperidine-4,3′-pyrrolo-[2,3-c]pyridin]-2′(1′H)-one], the EC50 was less than 0.158 nM. In the case of `O=C(Oc1ccc(F)cc1)N1CC2(C1)C(=O)N(Cc1nc3cc(Cl)ccc3n1CCCC(F)(F)F)c1ccccc12` [Compound 43, 4-fluorophenyl 1′-((5-chloro-1-(4,4,4-trifluorobutyl)-1H-benzo[d]imidazol-2-yl)methyl)-2′-oxospiro[azetidine-3,3′-indoline]-1-carboxytale], the EC50 was 0.251 nM. In the case of `CC(C)(C)OC(=O)N1CC2(C1)C(=O)N(Cc1nc3cc(Cl)ccc3n1CCCC(F)(F)F)c1ccccc12` [Compound 44, tert-butyl 1′-((5-chloro-1-(4,4,4-trifluorobutyl)-1H-benzo[d]imidazol-2-yl)methyl)-2′-oxospiro[azetidine-3,3′-indoline]-1-carboxylate], the EC50 was 0.251 nM. With `CC(C)COC(=O)N1CC2(C1)C(=O)N(Cc1nc3cc(Cl)ccc3n1CCCC(F)(F)F)c1ccccc12` [Compound 45, isobutyl 1′-((5-chloro-1-(4,4,4-trifluorobutyl)-1H-benzo[d]-imidazol-2-yl)methyl)-2′-oxospiro[azetidine-3,3′-indoline]-1-carboxylate] the EC50 was 0.398 nM. In the case of `O=C1N(Cc2nc3cc(Cl)ccc3n2CCCC(F)(F)F)c2ccccc2C12CNC2` [Compound 46, 1′-((5-chloro-1-(4,4,4-trifluorobutyl)-1H-benzo[d]imidazol-2-yl)methyl)spiro[azetidine-3,3-indolin]-2′-one], the EC50 was 0.631 nM. With `O=C(OC1CCCC1)N1CCC2(CC1)C(=O)N(Cc1nc3cc(Cl)ccc3n1CCCC(F)(F)F)c1ccccc12` [Compound 47, Cyclopentyl 1-((5-chloro-1-(4,4,4-trifluorobutyl)-1H-benzo[d]imidazol-2-yl)methyl)-2-oxospiro[indoline-3,4′-piperidine]-1′-carboxylate] the EC50 was 1.58 nM. `CC(C)(C)OC(=O)N1CCC2(CC1)C(=O)N(Cc1nc3cc(Cl)ccc3n1CCCC(F)(F)F)c1ccccc12` [Compound 48] gave an EC50 of 2.51 nM. `O=C1N(Cc2nc3cc(Cl)ccc3n2CCCC(F)(F)F)c2ccccc2C12CCNCC2` [Compound 49, 1-((5-chloro-1-(4,4,4-trifluorobutyl)-1H-benzo[d]imidazol-2-yl)methyl) spiro[indoline-3,4′-piperidin]-2-one] gave an EC50 of 5.01 nM. Molecule `O=C(OCc1ccccc1)N1CCC2(CC1)C(=O)N(Cc1nc3cc(Cl)ccc3n1CCCC(F)(F)F)c1ccccc12` [Compound 50, benzyl 1-((5-chloro-1-(4,4,4-trifluorobutyl)-1H-benzo[d]-imidazol-2-yl)methyl)-2-oxospiro[indoline-3,4′-piperidine]-1′-carboxylate] has an EC50 of 10 nM.
